The record followed here is ChEMBL document CHEMBL1148796 (J Med Chem, 2007).

Structures are written as SMILES.

Series [1] concerns Human immunodeficiency virus 1. The series can be described thus: Antiretroviral activity against HIV1 wild type in C8166 cells by MTT assay. The class given is functional. The following applies: Human immunodeficiency virus 1, C8166; read-out: ED50 (the source's name).
Series [2] concerns Human immunodeficiency virus 1. The series can be described thus: Antiviral activity against HIV1 RT Y181C mutant in MT4 cells by MTT assay. The following applies: Human immunodeficiency virus 1, MT4; read-out: ED50 (the source's name). It is filed as functional.
Series [3] deals with Human immunodeficiency virus 1. As to the kind of experiment: Antiviral activity against HIV1 3B in MT4 cells by MTT assay. It is filed as functional. The following applies: Human immunodeficiency virus 1, 3B, read-out: ED50 (the source's name).
Series [4] is described as follows: Selectivity index, ratio of TC50 for C8166 cells to ED50 for HIV1. The class given is functional.
Series [5] has as its system Human immunodeficiency virus 1. As to the kind of experiment: Antiretroviral activity against wild type HIV1 in MT4 cells by MTT assay. The following applies: Human immunodeficiency virus 1, MT4; read-out: ED50 (the source's name). It is filed as functional.
In series [6] the test system is Human immunodeficiency virus 1. The series can be described thus: Antiviral activity against HIV1 RT K103N-Y181C mutant in MT4 cells by MTT assay. It is filed as functional. The following applies: Human immunodeficiency virus 1, MT4; read-out: ED50 (the source's name).
Series [7] is described as follows: Cytotoxicity against mock-infected C8166 cells by MTT assay. The class given is cell-based. The following applies: human, read-out: TC50 (the source's name).
Series [8] can be described thus: Cytotoxicity against MT4 cells by MTT assay. The following applies: human, read-out: TC50 (the source's name). It is filed as cell-based.
Series [9] can be described thus: Selectivity index, ratio of TC50 for MT4 cells to ED50 for HIV1. It is filed as functional.
For series [10], the system named is Human immunodeficiency virus type 1 reverse transcriptase (Human immunodeficiency virus 1), Q72547 [K103N].
Description: Inhibition of HIV1 RT K103N mutant
Series [11] deals with Human immunodeficiency virus type 1 reverse transcriptase (Human immunodeficiency virus 1), Q72547 [Y181I].
The subject of series [12] is Human immunodeficiency virus 1. As to the kind of experiment: Antiviral activity against HIV1 RT AB1 mutant in lymphocytes assessed as reduction of p24 antigen production. It is filed as functional. The following applies: read-out: ED50 (the source's name).
A short description of series [13]: Cytotoxicity against lymphocytes. The following applies: human, read-out: TC50 (the source's name). The class given is cell-based, Lymphocyte.
Series [14] in a line: Selectivity index, ratio of TC50 for lymphocytes to ED50 for HIV1 3B. The class given is functional, Homo sapiens.
Series [15] concerns Human immunodeficiency virus 1. The series can be described thus: Antiviral activity against HIV1 RT 112 mutant in lymphocytes assessed as reduction of p24 antigen production. It is filed as functional. The following applies: read-out: ED50 (the source's name).
Series [16] addresses Human immunodeficiency virus type 1 reverse transcriptase (Human immunodeficiency virus 1) (UniProt Q72547).
Description: Inhibition of wild type HIV1 RT
For series [17], the system named is Human immunodeficiency virus type 1 reverse transcriptase (Human immunodeficiency virus 1), Q72547 [L100I].
Description: Inhibition of HIV1 RT L100I mutant
For series [18], the system named is Human immunodeficiency virus 1. As to the kind of experiment: Antiviral activity against wild type HIV1 3B in lymphocytes assessed as reduction of p24 antigen production. The following applies: Human immunodeficiency virus 1, 3B; read-out: ED50 (the source's name). The class given is functional.
The nature of series [19]: Selectivity index, ratio of TC50 for macrophages to ED50 for HIV1 3BBa-L. It is filed as functional.
A short description of series [20]: Selectivity index, ratio of TC50 for lymphocytes to ED50 for HIV1 RT 112 mutant. It is filed as functional.
Series [21] can be described thus: Cytotoxicity against macrophages. The class given is cell-based, Macrophage. The following applies: human, read-out: TC50 (the source's name).
A short description of series [22]: Selectivity index, ratio of TC50 for lymphocytes to ED50 for HIV1 RT AB1 mutant. It is filed as functional.
Series [23] deals with Human immunodeficiency virus 1. As to the kind of experiment: Antiretroviral activity against HIV1 3BBa-L in macrophages assessed as reduction of p24 antigen production. The class given is functional. The following applies: Human immunodeficiency virus 1, 3BBa-L; read-out: ED50 (the source's name).

Take `NC(=O)c1[nH]c2ccc(F)c(F)c2c1S(=O)(=O)c1ccccc1`: the EC50 in series [1] was found to be 10 nM; in series [2], 600 nM; in [3], 8 nM; in series [5], 8 nM; in [6], 18000 nM. The Selectivity index in series [4] is over 2000; in [9] it was over 2500. The CC50 in [7] and in series [8] was over 20000 nM each time.
Consider `Cc1cc(C)cc(S(=O)(=O)c2c(C(N)=O)[nH]c3cc(Cl)c(Cl)cc23)c1`, for which the EC50 in [1] was 15 nM; in [2], 1000 nM; in series [3], 10 nM; in [5], 10 nM; in [6], over 20000 nM. The Selectivity index was over 1333 in series [4] and over 2000 in [9]. Besides, the CC50 in series [7] and in [8] was over 20000 nM throughout.
Turning to `Cc1ccnc2c1NC(=O)c1cccnc1N2C1CC1` [NEVIRAPINE], the ID50 in series [10] is 7000 nM; in series [11], over 20000 nM; in series [16] it was 400 nM; in series [17], 9000 nM. The EC50 in series [2] was 14000 nM; in [3], 50 nM; in [12], over 20000 nM; in series [15], over 20000 nM; in series [6], over 20000 nM; in series [18] it was 90 nM. Moreover, in [13], the CC50 is over 20000 nM. In addition, the Selectivity index in [14] was over 222.
For the molecule `Cc1cc(C)cc(S(=O)(=O)c2c(C(N)=O)[nH]c3ccc(F)c(Cl)c23)c1`, the EC50 in series [1] was 9 nM; in series [2], 2200 nM; in series [3] it was 8 nM; in [5], 8 nM; in [6], over 20000 nM. For the same molecule, the Selectivity index is over 2222 in [4] and over 2500 in [9]. For the same molecule, the CC50 in [7] and in series [8] was over 20000 nM in each case.
`O=C1Nc2ccc(Cl)cc2[C@@](C#CC2CC2)(C(F)(F)F)O1` [EFAVIRENZ]: the EC50 in series [2] is 10 nM; in series [12], over 20000 nM; in series [15], over 20000 nM; in [6], 200 nM; in series [18] it was 7 nM. The CC50 in series [13] was over 20000 nM.
In the case of `NC(=O)c1[nH]c2cc(Cl)c(Cl)cc2c1S(=O)(=O)c1ccccc1`, the EC50 was 100 nM in series [1]; 1700 nM in series [2]; 80 nM in series [3]; 80 nM in series [5]; over 20000 nM in series [6]. Also, the Selectivity index in series [4] was over 200; in series [9] it was over 250. Further, the CC50 in [7] and in series [8] was over 20000 nM each time.
With `NC(=O)c1[nH]c2cc(F)c(F)cc2c1S(=O)(=O)c1ccccc1`, the EC50 in [1] was 20 nM; in series [2] it was 8200 nM; in [3] it was 16 nM; in [5] it was 16 nM; in series [6], over 20000 nM. For the same molecule, the Selectivity index in series [4] is on record as over 1000; in [9], over 1250. Further, the CC50 in [7] and in series [8] was over 20000 nM in each case.
As for `Cc1cc(C)cc(S(=O)(=O)c2c(C(N)=O)[nH]c3ccc(F)c(F)c23)c1`, the Selectivity index is on record as over 870 in series [19]; over 154 in [20]; over 1000 in series [14]; over 6667 in series [4]; over 238 in series [22]; over 20000 in series [9]. For the same molecule, the EC50 in series [1] turned out to be 3 nM; in [2] it was 50 nM; in [3], 1 nM; in [12], 84 nM; in series [5], 1 nM; in [15], 130 nM. The EC50 in series [6] turned out to be 1200 nM; in [23] it was 23 nM; in series [18], 20 nM. For the same molecule, the ID50 in series [10] was 1000 nM; in [11], 2050 nM; in [16], 1.7 nM; in [17], 90 nM. Besides, the CC50 in [13], in series [21], in series [7] and in series [8] was over 20000 nM throughout.
Take `Cc1cc(C)cc(S(=O)(=O)c2c(C(N)=O)[nH]c3ccc(Cl)c(F)c23)c1`: the Selectivity index in [19] is on record as over 2000; in [20], over 2000; in series [14], over 2500; in series [4], over 25000; in [22], over 1667; in series [9], over 40000. Also, the EC50 was 0.8 nM in series [1]; 4 nM in series [2]; 0.5 nM in [3]; 12 nM in series [12]; 0.5 nM in [5]; 10 nM in series [15]. Moreover, the EC50 in [6] turned out to be 300 nM; in series [23] it was 10 nM; in series [18] it was 8 nM. The ID50 worked out at 6 nM in series [10], 29 nM in series [11], 3 nM in series [16] and 2 nM in [17]. For the same molecule, the CC50 in [13], in series [21], in series [7] and in series [8] was over 20000 nM throughout.
As to `Cc1cc(C)cc(S(=O)(=O)c2c(C(N)=O)[nH]c3c(F)cc(F)cc23)c1`, the EC50 in [1] was 25 nM; in series [2], 1500 nM; in series [3], 7 nM; in [5], 7 nM; in [6], over 20000 nM. Moreover, the figures for the Selectivity index in series [4] and in series [9] were over 800 and over 2857, respectively. The CC50 in series [7] and in series [8] was over 20000 nM in each case.
In the case of `Cc1cc(C)cc(S(=O)(=O)c2c(C(N)=O)[nH]c3c(Cl)cc(Cl)cc23)c1`, the EC50 in [1] is 12 nM; in series [2], 4200 nM; in [3], 21 nM; in series [5] it was 21 nM; in series [6], over 20000 nM. Further, the Selectivity index was over 1667 in series [4] and over 952 in series [9]. The CC50 in [7] and in series [8] was over 20000 nM in each case.
For `Cc1cc(C)cc(S(=O)(=O)c2c(C(N)=O)[nH]c3cc(F)c(Cl)cc23)c1`, the EC50 in series [1] is 10 nM; in series [2] it was 50 nM; in series [3] it was 12 nM; in [5], 12 nM; in [6], over 20000 nM. The Selectivity index is given as over 2000 in series [4] and over 1667 in [9]. The CC50 in series [7] and in [8] was over 20000 nM in each case.
With `Cc1cc(C)cc(S(=O)(=O)c2c(C(N)=O)[nH]c3cc(F)c(F)cc23)c1`, the EC50 in series [1] is 30 nM; in series [2] it was 400 nM; in series [3], 20 nM; in series [5], 20 nM; in series [6], over 20000 nM. Besides, the Selectivity index in [4] was over 667; in series [9] it was over 1000. Besides, the CC50 in [7] and in series [8] was over 20000 nM in each case.
On to `Cc1cc(C)cc(S(=O)(=O)c2c(C(N)=O)[nH]c3cc(Cl)c(F)cc23)c1`, for which the EC50 is 50 nM in series [1]; 700 nM in series [2]; 50 nM in series [3]; 50 nM in series [5]; 12000 nM in series [6]. For the same molecule, the values for the Selectivity index in series [4] and in [9] were over 400 and 360, respectively. In addition, the values for the CC50 in series [7] and in series [8] were over 20000 nM and 18000 nM, respectively.
